Results from patent publication US20230339866A1, “Quinazoline compounds and the use thereof in the treatment of cancer” (TROBIO THERAPEUTICS PTY LTD, priority 2020, published 2023).

Experiments:
Type in all cases: cell-based
[1] = test system: A2780 (ovarian); test: Anti-proliferative activity (Cell-Titre luminescence) against A2780 ovarian cancer cells; settings: 72 h exposure, Cell-Titre luminescent reagent
Protocol: (§1) The ability of compounds of the invention to inhibit the proliferation of cancer cells representative of non-small cell lung cancer and ovarian cancer (Table 2), pancreatic cancer, colorectal cancer and prostate cancer (Table 3) was assessed. Briefly, a predetermined number of cells as calculated from cell growth assays for each of the cell lines employed were seeded into their respective culture medium (using ATCC culture parameters—http://www.atcc.org) and cultured for 24 h at 37° C. and 5% CO2 in 96-well culture plates. Once attached, each cell line was then exposed to various concentrations of each respective analogue (30, 10, 3, 1, 0.3 and 0.1 μM), cultured for a further 72 h and exposed to Cell-Titre luminescent reagent (100 μL/well) for a further 30 min. Luminescence was captured using an EnVision multilabel reader and the data for each analogue concentration compared against no treatment control. Cell viability was normalised to control (vehicle alone) and dose response curves, and half maximal effective concentration (EC50) values were determined using Graph Pad Prism 6 (nonlinear regression sigmoidal dose-response variable slope).

[2] = test system: A549 (NSCLC); test: Anti-proliferative activity (Cell-Titre luminescence) against A549 non-small cell lung cancer cells; settings: 72 h exposure, Cell-Titre luminescent reagent
Protocol: as §1

[3] = test system: SK-N-SH neuroblastoma cells; test: Anti-proliferative activity (MTS assay) against SK-N-SH neuroblastoma cells; settings: Homo sapiens, SK-N-SH, 72 h
Protocol: The ability of compounds of the disclosure to inhibit the proliferation of SK-N-SH neuroblastoma cells was also assessed. […] Cell viability was normalised to control (vehicle alone) and dose response curves and IC50 values (Table 4) were determined using Graph Pad Prism 6.

Compound | IC50 ([1]; Homo sapiens, A2780, 72 h) [µM] | IC50 ([2]; Homo sapiens, A549, 72 h) [µM] | IC50 [3] [µM] | IC50 [1] [µM] | IC50 [2] [µM]
FC(F)(F)c1cccc(CCNc2nc(NCCc3c[nH]cn3)c3ccccc3n2)c1 [Compound 84, N^4-(2-(1H-imidazol-4-yl)ethyl)-N^2-(3-(trifluoromethyl)phenethyl)quinazoline-2,4-diamine] | 1.51 | 1.39 | 1.26 | – | –
COc1ccc(Nc2nc(NCCN(C)C)c3ccccc3n2)cc1 [Compound 61, N^4-(2-(dimethylamino)ethyl)-N^2-(4-methoxyphenyl)quinazoline-2,4-diamine] | 7.09 | 11.9 | – | – | –
CN1CCN(CCNc2nc(NCCc3cccc(C#N)c3)nc3ccccc23)CC1 [Compound 126, 3-(2-((4-((2-(4-methylpiperazin-1-yl)ethyl)amino)quinazolin-2-yl)amino)ethyl)benzonitrile] | 2.5 | 14.8 | – | – | –
OCCNc1nc(-c2ccco2)nc2ccccc12 [Compound 22, 2-((2-(furan-2-yl)quinazolin-4-yl)amino)ethan-1-ol] | > 30 | > 30 | – | – | –
CN1CCN(CCNc2nc(N3CCCC3)nc3ccccc23)CC1 [Compound 16, N-(2-(4-methylpiperazin-1-yl)ethyl)-2-(pyrrolidin-1-yl)quinazolin-4-amine] | 22.5 | > 30 | – | – | –
CC(C)C(CNc1nc(-c2ccsc2)nc2ccccc12)N1CCN(C)CC1 (stereo not drawn) [Compound 1, N-(3-methyl-2-(4-methylpiperazin-1-yl)butyl)-2-(thiophen-3-yl)quinazolin-4-amine] | 8.59 | 8.06 | – | – | –
Cc1ccccc1CCNc1nc(NCCN2CCN(C)CC2)c2ccccc2n1 [Compound 122, N^2-(2-methylphenethyl)-N^4-(2-(4-methylpiperazin-1-yl)ethyl)quinazoline-2,4-diamine] | 2.68 | 3.17 | – | – | –
CN(C)CCCNc1nc(-n2cccc2)nc2ccccc12 [Compound 103, N^1-(2-(1H-pyrrol-1-yl)quinazolin-4-yl)-N^3,N^3-dimethylpropane-1,3-diamine] | 16.5 | 24.1 | – | – | –
CN1CCN(CCNc2nc(NCCc3ccccc3Cl)nc3ccccc23)CC1 [Compound 123, N^2-(2-chlorophenethyl)-N^4-(2-(4-methylpiperazin-1-yl)ethyl)quinazoline-2,4-diamine] | 2.38 | 3.36 | – | – | –
CN1CCN(CCNc2nc(NCCc3ccccc3C(F)(F)F)nc3ccccc23)CC1 [Compound 120, N^4-(2-(4-methylpiperazin-1-yl)ethyl)-N^2-(2-(trifluoromethyl)phenethyl)quinazoline-2,4-diamine] | 1.4 | 5.28 | – | – | –
COc1ccc(Nc2nc(NCCO)c3ccccc3n2)cc1 [Compound 30, 2-((2-((4-methoxyphenyl)amino)quinazolin-4-yl)amino)ethan-1-ol] | > 30 | > 30 | – | – | –
CN1CCN(CCNc2nc(NCCc3ccc4c(c3)OCO4)nc3ccccc23)CC1 [Compound 143, N^2-(2-(benzo[d][1,3]dioxol-5-yl)ethyl)-N^4-(2-(4-methylpiperazin-1-yl)ethyl)quinazoline-2,4-diamine] | 3.01 | 9.48 | – | – | –
CN1CCN(CCNc2nc(NCCc3cc(F)cc(F)c3)nc3ccccc23)CC1 [Compound 138, N^2-(3,5-difluorophenethyl)-N^4-(2-(4-methylpiperazin-1-yl)ethyl)quinazoline-2,4-diamine] | 1.1 | 6.07 | – | – | –
OCCNc1nc(-n2cccc2)nc2ccccc12 [Compound 25, 2-((2-(1H-pyrrol-1-yl)quinazolin-4-yl)amino)ethan-1-ol] | > 30 | > 30 | – | – | –
CCc1ccc(Nc2nc(NCCN(C)C)c3ccccc3n2)cc1 [Compound 62, N^4-(2-(dimethylamino)ethyl)-N^2-(4-ethylphenyl)quinazoline-2,4-diamine] | 13.1 | 7.5 | – | – | –
N^2-(3-methoxyphenyl)-N^4-(2-(4-methylpiperazin-1-yl)ethyl)quinazoline-2,4-diamine [Compound 43] | – | – | – | 1.03 | 6.09
CN1CCN(CCNc2nc(NCc3cccc(C(F)(F)F)c3)nc3ccccc23)CC1 [Compound 46, N^4-(2-(4-methylpiperazin-1-yl)ethyl)-N^2-(3-(trifluoromethyl)benzyl)quinazoline-2,4-diamine] | 2.34 | 3.04 | – | – | –
COc1ccc(Nc2nc(NCCN3CCN(C)CC3)c3ccccc3n2)cc1 [Compound 44, N^2-(4-methoxyphenyl)-N^4-(2-(4-methylpiperazin-1-yl)ethyl)quinazoline-2,4-diamine] | 2.49 | 5.8 | – | – | –
CN1CCN(CCNc2nc(NCCc3ccc(Cl)c(Cl)c3)nc3ccccc23)CC1 [Compound 135, N^2-(3,4-dichlorophenethyl)-N^4-(2-(4-methylpiperazin-1-yl)ethyl)quinazoline-2,4-diamine] | 0.66 | 3.19 | – | – | –

Compound | IC50 ([1]; Homo sapiens, A2780, 72 h) [µM] | IC50 ([2]; Homo sapiens, A549, 72 h) [µM] | IC50 [3] [µM] | IC50 [1] [µM] | IC50 [2] [µM]
CC(C)C(CNc1nc(-c2ccc[nH]2)nc2ccccc12)N1CCN(C)CC1 (stereo not drawn) [Compound 4, N-(3-methyl-2-(4-methylpiperazin-1-yl)butyl)-2-(1H-pyrrol-2-yl)quinazolin-4-amine] | 8.3 | 8.56 | – | – | –
COc1ccc(Nc2nc(NCCCN(C)C)c3ccccc3n2)cc1 [Compound 70, N^4-(3-(dimethylamino)propyl)-N^2-(4-methoxyphenyl)quinazoline-2,4-diamine] | 8.33 | 11.7 | – | – | –
CC(C)C(CNc1nc(-c2ccoc2)nc2ccccc12)N1CCN(C)CC1 (stereo not drawn) [Compound 7, 2-(furan-3-yl)-N-(3-methyl-2-(4-methylpiperazin-1-yl)butyl)quinazolin-4-amine] | 10.8 | 10.2 | – | – | –
FC(F)(F)c1cccc(CCNc2nc(NCCN3CCOCC3)c3ccccc3n2)c1 [Compound 113, N^4-(2-morpholinoethyl)-N^2-(3-(trifluoromethyl)phenethyl)quinazoline-2,4-diamine] | 2.54 | 8.79 | – | – | –
FC(F)(F)c1cccc(CCNc2nc(NCCN3CCCCC3)c3ccccc3n2)c1 [Compound 114, N^4-(2-(piperidin-1-yl)ethyl)-N^2-(3-(trifluoromethyl)phenethyl)quinazoline-2,4-diamine] | 0.937 | 2.36 | – | – | –
Cc1ccc(CCNc2nc(NCCN3CCN(C)CC3)c3ccccc3n2)cc1 [Compound 127, N^2-(4-methylphenethyl)-N^4-(2-(4-methylpiperazin-1-yl)ethyl)quinazoline-2,4-diamine] | 2.62 | 2.54 | – | – | –
FC(F)(F)c1cccc(CCNc2nc(NCCN3CCCC3)c3ccccc3n2)c1 [Compound 115, N^4-(2-(pyrrolidin-1-yl)ethyl)-N^2-(3-(trifluoromethyl)phenethyl)quinazoline-2,4-diamine] | 1.24 | 2.52 | – | – | –
CCc1ccc(CCNc2nc(NCCN(C)C)c3ccccc3n2)cc1 [Compound 66, N^4-(2-(dimethylamino)ethyl)-N^2-(4-ethylphenethyl)quinazoline-2,4-diamine] | 13.7 | > 30 | – | – | –
OCCCNc1nc(-c2ccc[nH]2)nc2ccccc12 [Compound 109, 3-((2-(1H-pyrrol-2-yl)quinazolin-4-yl)amino)propan-1-ol] | 13 | 21.1 | – | – | –
COc1cccc(CNc2nc(NCCO)c3ccccc3n2)c1 [Compound 33, 2-((2-((3-methoxybenzyl)amino)quinazolin-4-yl)amino)ethan-1-ol] | 8.95 | 21 | – | – | –
CC(C)C(CNc1nc(N2CCCC2)nc2ccccc12)N1CCN(C)CC1 (stereo not drawn) [Compound 8, N-(3-methyl-2-(4-methylpiperazin-1-yl)butyl)-2-(pyrrolidin-1-yl)quinazolin-4-amine] | > 30 | > 30 | – | – | –
OCCNc1nc(Nc2ccccc2)nc2ccccc12 [Compound 26, 2-((2-(phenylamino)quinazolin-4-yl)amino)ethan-1-ol] | 16.9 | 22 | – | – | –
COc1cccc(CCNc2nc(NCCN3CCN(C)CC3)c3ccccc3n2)c1 [Compound 53, N^2-(3-methoxyphenethyl)-N^4-(2-(4-methylpiperazin-1-yl)ethyl)quinazoline-2,4-diamine] | 18.2 | > 30 | – | – | –
OCCNc1nc(-c2cc[nH]c2)nc2ccccc12 [Compound 21, 2-((2-(1H-pyrrol-3-yl)quinazolin-4-yl)amino)ethan-1-ol] | > 30 | > 30 | – | – | –
COc1cccc(CCNc2nc(NCCO)c3ccccc3n2)c1 [Compound 38, 2-((2-((3-methoxyphenethyl)amino)quinazolin-4-yl)amino)ethan-1-ol] | 18.8 | 26.8 | – | – | –
CN1CCN(CCNc2nc(-c3cccs3)nc3ccccc23)CC1 [Compound 10, N-(2-(4-methylpiperazin-1-yl)ethyl)-2-(thiophen-2-yl)quinazolin-4-amine] | > 30 | > 30 | – | – | –
OCCNc1nc(NCCc2cccc(F)c2)nc2ccccc12 [Compound 90, 2-((2-((3-fluorophenethyl)amino)quinazolin-4-yl)amino)ethan-1-ol] | 5.19 | 3.87 | – | – | –
CN1CCN(CCNc2nc(-c3ccc[nH]3)nc3ccccc23)CC1 [Compound 12, N-(2-(4-methylpiperazin-1-yl)ethyl)-2-(1H-pyrrol-2-yl)quinazolin-4-amine] | 10.2 | 8.24 | – | – | –
